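Cultured in 96-well plates, cells were exposed to test compound for 48 hours across five concentrations. Definition used: TGI = concentration required for complete inhibition of growth.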
How the values were obtained:
Experiment in all cases: growth of human tumour cells (NCI), 48 h
HCT-15 colon = system: HCT-15 colon
SK-MEL-2 melanoma = system: SK-MEL-2 melanoma
HT29 colon = system: HT29 colon
OVCAR-5 ovarian = system: OVCAR-5 ovarian
RPMI-8226 leukemia = system: RPMI-8226 leukemia
T-47D breast = system: T-47D breast
NCI/ADR-RES ovarian = system: NCI/ADR-RES ovarian
HOP-62 NSCLC = system: HOP-62 NSCLC
EKVX NSCLC = system: EKVX NSCLC
DU-145 prostate = system: DU-145 prostate
SF-539 CNS = system: SF-539 CNS
MALME-3M melanoma = system: MALME-3M melanoma
UACC-62 melanoma = system: UACC-62 melanoma
SNB-19 CNS = system: SNB-19 CNS

Row | Structure (SMILES) | TGI (HCT-15 colon) | TGI (SK-MEL-2 melanoma) | TGI (HT29 colon) | TGI (OVCAR-5 ovarian) | TGI (RPMI-8226 leukemia) | TGI (T-47D breast) | TGI (NCI/ADR-RES ovarian) | TGI (HOP-62 NSCLC) | TGI (EKVX NSCLC) | TGI (DU-145 prostate) | TGI (SF-539 CNS) | TGI (MALME-3M melanoma) | TGI (UACC-62 melanoma) | TGI (SNB-19 CNS)
1 | CC1=CC(=O)CC(C)(C)C1/C=C/C(C)=C/C=C/C(C)=C/C=C/C=C(C)/C=C/C=C(C)/C=C/C1=C(C)CC(O)CC1(C)C (stereo not given) | 73.4 µM | > 100 µM | > 100 µM | > 100 µM | 27.9 µM | > 100 µM | > 100 µM | > 100 µM | > 100 µM | > 100 µM | > 100 µM |  |  | 
2 | Cc1cc(S(=O)(=O)/N=C(/[N-]S(=O)(=O)c2ccc(Cl)cc2)[n+]2ccc(N(C)C)cc2)c(SCC(=O)O)cc1Cl | > 100 µM |  | > 100 µM | > 100 µM | > 100 µM | > 100 µM |  | 46.2 µM | > 100 µM | > 100 µM | > 100 µM | > 100 µM | > 100 µM | > 100 µM
3 | NN1C(=O)C(CCO)S/C1=N/N=C1/SC(CCO)C(=O)N1N (stereo not given) | > 100 µM | > 100 µM | > 100 µM | > 100 µM | > 100 µM |  |  | > 100 µM | > 100 µM |  | > 100 µM | > 100 µM | > 100 µM | > 100 µM
4 | CC1C(OC2O[C@@H]3O[C@@]4(C)CC[C@H]5[C@H](C)CC[C@@H](C2C)[C@@]35O4)O[C@@H]2O[C@@]3(C)CC[C@H]4[C@H](C)CC[C@@H]1[C@@]24O3 (stereo not given in full) | > 50 µM | > 50 µM | > 50 µM | > 50 µM | > 50 µM | > 50 µM |  | > 50 µM | > 50 µM | > 50 µM | > 50 µM | > 50 µM | > 50 µM | > 50 µM
5 | Cn1c(=O)sc2cc(C(=S)N3CCC(Cc4ccccc4)CC3)ccc21 | > 100 µM | > 100 µM | > 100 µM | > 100 µM | > 100 µM |  | > 100 µM | > 100 µM | > 100 µM | > 100 µM | > 100 µM |  | > 100 µM | > 100 µM
6 | Cc1c2ccncc2c(C)c2c1[nH]c1ccc(OCC(F)(F)F)cc12 | 2.56 µM | 3.19 µM | 3.11 µM | 2.86 µM | 5.32 µM |  |  | 3.03 µM | 3.09 µM |  | 3.16 µM | 3.23 µM |  | 3.03 µM
7 | COc1ccc(C(=O)/C=C/c2ccc(OCCSCCCCCCCCCCSCCOc3ccc(/C=C/C(=O)c4ccc(OC)c(OC)c4)cc3)cc2)cc1OC | > 100 µM |  | > 100 µM |  | > 100 µM | > 100 µM |  | > 100 µM | > 100 µM | > 100 µM | > 100 µM | > 100 µM | > 100 µM | 
8 | O=C(/C(=C\c1ccc(Cl)cc1)c1ccccc1)c1ccccc1 | > 100 µM | 75 µM | > 100 µM | > 100 µM | > 100 µM |  |  | > 100 µM | > 100 µM |  | > 100 µM | > 100 µM | > 100 µM | 
9 | COc1ccc(C(=O)C(c2ccc(OCc3ccccc3)cc2)c2ccc(OCc3ccccc3)cc2)cc1 | > 100 µM | > 100 µM | > 100 µM | > 100 µM | > 100 µM |  |  | > 100 µM | > 100 µM |  | > 100 µM | > 100 µM | > 100 µM | > 100 µM

— PubChem BioAssay (NCI)
